Columns and labels:
[1] = biological target: T1, human GABAA receptor α1, β2 and γ2 subunit (HEK293T cell line) (Homo sapiens, UniProt P14867+P47870); assay: Positive regulatory effect on GABAA receptor, manual patch clamp; assay type: cell-based; details: whole-cell current, 1 μM GABA
T1 construct: expressed in transfected cells
Experimental: The objective of this test example is to determine the positive regulatory effect of the compound on GABAA receptor by the electrophysiological manual patch clamp method.
Manual patch clamp system HEKA EPC10 USB signal amplifier and digital conversion system (purchased from HEKA Electronics, Germany), centrifuge (Eppendorf, etc.), carbon dioxide incubator (purchased from Thermo, etc.), biological safety cabinet (Thermo, etc.), pipette (purchased from Eppendorf, etc.).
The cells were grown in a culture dish with DMEM medium (purchased from Invitrogen), and cultured in an incubator at 37° C. and 5% CO2. Before the electrophysiological experiment, the cells were transferred to a round glass slide placed in the culture dish, and grown in the same culture medium and under the same culture condition as above. The density of cells on each round glass slide should meet the requirement that most cells were independent and individual.
Each test compound was diluted in gradient with DMSO to obtain a stock solution, which was then diluted with extracellular fluid by 1,000-fold to obtain the final test concentration. The final concentration of DMSO in the compound solution with each concentration was 0.1%. The experiment used the manual patch clamp system HEKA EPC10 USB signal amplifier and digital conversion system for whole cell current recording. The round glass slide with HEK293T GABAA cells grown on the surface was taken out of the culture dish, and placed in the electrophysiological recording tank under the inverted microscope. The recording tank was continuously perfused with extracellular fluid. During the experiment, the whole-cell current recording technology was used to record the chloride current of the GABAA channel. 1 μM GABA was used to activate the chloride current of the GABAA channel of each cell as an initial control. 1 μM GABA acted on the cell through the drug perfusion system to induce the chloride current of the GABAA channel, the action time was about 3 to 5 seconds, and the current value was used as the initial control value. The test concentration of compound was perfused and incubated for 2 to 5 minutes. […] GABA solution (mixed with the test concentration of compound) was given to the cells to observe the enhancement effect of the test compound on the current induced by 1 μM GABA. When the cell state was stable, the test compound acted on the same cell from low to high concentration to record the enhancement effect of the induced current.
The experimental data was analyzed by HEKA Patchmaster, Microsoft Excel and the data analysis software provided by Graphpad Prism.

GABA-A receptor = assay: 35S-TBPS binding assay (GABAA receptor binding ability assay); design: species or system Sprague-Dawley rat; details: rat cerebral cortex cell membrane, 5 μM GABA, 2 nM 35S-TBPS; read-out: IC50 on inhibiting the TBPS binding activity, 35S-TBPS bindng assay
Summary of the method: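 Male Sprague-Dawley rat cerebral cortex membranes in PBS, preincubated with compound (1% DMSO, 8-point 3-fold series) 5 min at 25° C, then GABA 5 μM final 5 min, then 2 nM 35S-TBPS for 20 h at 4° C. Bound radioactivity filtered on PEI-treated GF/C and counted. % inhibition relative to DMSO and 10 μM P026-2 controls; IC50 from 4-parameter fit.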

ICR mice = assay: Forced swimming model in mice; assay type: in vivo; details: for Mean (immobility, %): floating time/240 s; for Mean (immobility, s): latter four minutes of 6 min swim
Experimental: The antidepressant effect of the compound was evaluated by the forced swimming model in mice.
Compounds of Examples 1 to 3, Example 9, Example 40, Example 41, Examples 48 to 52, Example 90 and Example 98 of the present invention, prepared by the applicant.
Male ICR mice (25-35 g) were adapted in the experiment environment for 3 days before the forced swimming test.
According to the experiment design, the mice were randomly grouped on the day before the experiment according to body weight, with 12 mice in each group. Before the test, the compounds of each example were administered intragastrically according to the Tmax thereof in the brain in mice pharmacokinetic experiment.
Respectively: • 1) Model group (0.5% CMC-Na-1% Tween 80 solution, p.o., 10 mL/kg); • 2) Compounds of Examples 1 to 3, Example 40, Example 41, Examples 48 to 51, Example 90 and Example 98 (10 mg/kg, p.o., 10 mL/kg); Example 9 and Example 52 (5 mg/kg, p.o., 5 mL/kg).
When being administered, the compounds of each example were suspended in 0.5% CMC-Na+1% Tween 80 solution to the desired concentration.
0.5-1 hour after administration, ICR mice were placed in a forced swimming device (transparent glass drum (water depth 18 cm, water temperature 25-26° C.), one mouse per tank) and forced to swim for 6 minutes. The forced swimming device recorded the floating time of the ICR mice during the entire 6 minutes, and the data of the latter four minutes were used for data analysis. The mice were taken out immediately after the swimming experiment, wiped dry and put back in their original cages.
Note: The criterion for determining the immobility time is that the mouse stops struggling in water and floats, and there are only slight limb movements to keep the head floating on the water.
3.4 Data Analysis Floating time percentage=100*floating time/240 s.

CD-1 mice = assay: PTZ-induced epilepsy model in mice; assay type: in vivo; details: 3 mpk p.o., PTZ 120 mg/kg s.c., 30 min observation
Experimental: The PTZ-induced epilepsy model in CD-1 mice was established, and the antiepileptic effect of the compounds of Example 2, Example 40, Example 41 and Example 52 was evaluated using this model.
50 male CD-1 mice were purchased from Beijing Vital River Laboratory Animal Technology Co. Ltd. The test animals were adapted at the animal room in the third building of Shanghai ChemPartner Co., Ltd for 7 days before the experiment. The average body weight of the animals on the test day was 32.2±0.2 grams. Feeding environment: 5 animals/cage, room temperature 23±2° C., 12/12 hours of light and dark cycle, free access to food and water.
The mice were randomly grouped for the experiment on the test day.
Compounds of Example 2, Example 40, Example 41 and Example 52 (prepared by the applicant). The test compounds were stored in a refrigerator at 4° C.
4.2.3 Test Equipments • 1 ml sterile disposable syringe with needle (purchased from Zhejiang Kangdelai Medical Devices Co., Ltd.) • Pipette: Eppendorf Research Plus (100-1000 μL) • Vortex mixer: Kylin-Bell Vortex 5 • Ultrasonic instrument: JL-360 ultrasonic cleaner • Balance: METTLER TOLEDO XS204 precision balance • Balance: METTLER TOLEDO XS6002S electronic balance • Plexiglass box: 25 cm length*15 cm width*15 cm height with one opaque side wall, custom made by Suzhou Fengshi Laboratory Animal Equipment Co., Ltd • 3-channel timer: Oregon/Model NO. WB-388. 4.2.4 Test Animal Grouping • 1) Vehicle/PTZ: 0.5% CMC-Na+1% Tween-80 (10 ml/kg, p.o.), administered 0.5 hr before the PTZ administration; PTZ ([…], s.c.), administered before the experiment; • 2) 3 mg/kg of the compounds of Examples/PTZ: the compounds of Example 2, Example 40, Example 41 and Example 52 (3 mg/kg, 10 ml/kg, p.o.), administered 0.5 hr before the PTZ administration; PTZ ([…], s.c.), administered before the experiment. 4.3 Experimental Procedures 4.3.1 Solvent Formulation • 1) 0.5% CMC-Na+1% Tween-80 (administration volume: 10 mL/kg):
1 g of sodium carboxymethyl cellulose was precisely weighed and added to a 250 mL solvent bottle, then 150 mL of double-distilled water was added. The mixture was stirred at room temperature for 4 hours with a magnetic stirrer to obtain a uniform and clear solution. 2 mL of Tween-80 was slowly added, and the mixture was stirred at room temperature for 3 hours to obtain a uniform and clear solution. The solution was slowly transferred to a 200 mL volumetric flask, and double distilled water was added to the constant volume of 200 mL. The solution was transferred to a 250 mL solvent bottle, and stirred for 1 hour with a magnetic stirrer to obtain a uniform and clear solution. • 2) 30% hydroxypropyl-p-cyclodextrin:
248 mg of PTZ was precisely weighed and added to a 40 mL brown flask, then 20.667 mL of physiological saline was added. The mixture was mixed by vortex for 2 minutes, and treated by ultrasound at room temperature for 2 minutes to obtain a uniform and clear solution (concentration: 12 mg/mL). • 2) 0.3 mg/mL of the compounds of Example 5 or Example 23 (dose: 3 mg/kg; administration volume: 10 mL/kg): […]
4.4 Adaptation to the Environment
The mice were randomly grouped, marked and weighed; 10 mice per group. The test compound was administered orally at an administration volume of 10 mL/kg 30-60 minutes before the PTZ administration.
PTZ (120 mg/kg) was administrated subcutaneously before the experiment observation, and this time point was recorded as the observation start point; after the administration of PTZ, the animal was immediately placed in the observation box and observed for 30 minutes, and the followings were recorded: a) the incubation period of the first clonic seizure, b) the incubation period of the first generalized tonic seizure, c) the number of clonic seizures, d) the number of generalized tonic seizures, e) the time when the animal died.
All measurement data were expressed as Mean±SEM, and analysed with Prism 6.0 statistical software.

T1 sequence (P14867 28-456): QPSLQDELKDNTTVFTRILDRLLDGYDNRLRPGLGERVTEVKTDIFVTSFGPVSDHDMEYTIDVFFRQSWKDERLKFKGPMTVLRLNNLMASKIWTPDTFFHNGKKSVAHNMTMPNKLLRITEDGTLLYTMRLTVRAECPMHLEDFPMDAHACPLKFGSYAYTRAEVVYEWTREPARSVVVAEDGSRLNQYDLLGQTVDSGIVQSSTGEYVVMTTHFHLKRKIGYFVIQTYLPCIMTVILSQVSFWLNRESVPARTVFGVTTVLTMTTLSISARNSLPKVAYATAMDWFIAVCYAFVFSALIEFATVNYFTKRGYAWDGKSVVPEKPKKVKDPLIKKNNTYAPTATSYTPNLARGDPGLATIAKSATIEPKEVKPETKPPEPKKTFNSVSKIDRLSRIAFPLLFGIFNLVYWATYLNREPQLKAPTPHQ
T1 sequence (P47870 25-512 limits assumed): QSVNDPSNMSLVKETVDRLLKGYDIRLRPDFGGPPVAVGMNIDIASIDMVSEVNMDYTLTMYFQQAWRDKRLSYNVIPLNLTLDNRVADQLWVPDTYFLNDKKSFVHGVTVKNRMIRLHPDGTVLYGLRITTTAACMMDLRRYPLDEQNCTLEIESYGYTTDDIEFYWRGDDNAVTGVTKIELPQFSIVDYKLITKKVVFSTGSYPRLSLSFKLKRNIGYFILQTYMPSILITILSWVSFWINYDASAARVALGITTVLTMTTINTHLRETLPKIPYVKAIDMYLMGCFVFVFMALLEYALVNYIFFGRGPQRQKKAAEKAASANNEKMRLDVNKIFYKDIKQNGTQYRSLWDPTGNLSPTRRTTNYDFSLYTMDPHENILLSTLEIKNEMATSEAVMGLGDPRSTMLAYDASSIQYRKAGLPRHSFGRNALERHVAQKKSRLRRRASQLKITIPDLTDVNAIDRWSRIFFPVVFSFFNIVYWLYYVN
T1 sequence (P18507 40-475 partner): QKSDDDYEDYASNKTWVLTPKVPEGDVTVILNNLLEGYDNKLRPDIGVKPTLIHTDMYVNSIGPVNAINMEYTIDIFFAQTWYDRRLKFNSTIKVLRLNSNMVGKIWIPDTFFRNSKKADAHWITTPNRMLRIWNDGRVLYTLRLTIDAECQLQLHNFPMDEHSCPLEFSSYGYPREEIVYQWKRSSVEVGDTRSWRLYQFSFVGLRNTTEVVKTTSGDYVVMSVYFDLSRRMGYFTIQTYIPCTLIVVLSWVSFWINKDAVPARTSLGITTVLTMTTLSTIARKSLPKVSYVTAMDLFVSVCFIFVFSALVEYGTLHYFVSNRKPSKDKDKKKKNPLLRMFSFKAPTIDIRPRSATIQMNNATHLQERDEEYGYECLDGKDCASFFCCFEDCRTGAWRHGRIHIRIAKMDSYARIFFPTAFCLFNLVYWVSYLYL

| SMILES | EC50 [1] | IC50 (GABA-A receptor) | Mean (immobility, %) (ICR mice; dose 5 mpk p.o.) | Mean (immobility, s) (ICR mice; dose 5 mpk p.o.) | Mean (immobility, %) (ICR mice; dose 10 mpk p.o.) | Mean (immobility, s) (ICR mice; dose 10 mpk p.o.) | immobility time during the latter four minutes compared with that of the model group (ICR mice; forced swimming, ICR mice) | Incubation period of the clonic seizure (sec) Mean ± SEM (CD-1 mice) | Incubation period of the generalized tonic seizure (sec) Mean (CD-1 mice) | Mortality rate (%) (CD-1 mice) | Number of clonic seizures Mean (CD-1 mice) | Number of generalized tonic seizures Mean (CD-1 mice) | Time when the animal died (sec) Mean (CD-1 mice) |
| --- | --- | --- | --- | --- | --- | --- | --- | --- | --- | --- | --- | --- | --- |
| C[C@@H]1C[C@H](C(=O)Cn2cc(C#N)cn2)[C@@]2(C)CC[C@H]3[C@@H](CC[C@@H]4C[C@](C)(O)CC[C@@H]43)[C@H]12 [Example 9, 1-(2-((3R,5R,8R,9R,10S,13S,14S,15R)-3-Hydroxy-3,13,15-trimethylhexadecahydro-1H-cyclopenta[a]phenanthren-17-yl)-2-oxoethyl)-1H-pyrazole-4-carbonitrile] | 60 nM | 4.6 nM | 57.60% | 138.22 s | – | – | – | – | – | – | – | – | – |
| C[C@@H]1C[C@H](C(=O)Cn2nccn2)[C@@]2(C)CC[C@H]3[C@@H](CC[C@@H]4C[C@](C)(O)CC[C@@H]43)[C@H]12 [Example 41, 1-((3R,5R,8R,9R,10S,13S,14S,15R,17S)-3-Hydroxy-3,13,15-trimethylhexadecahydro-1H-cyclopenta[a]phenanthren-17-yl)-2-(2H-1,2,3-triazol-2-yl)ethan-1-one] | 130 nM | – | – | – | 35.75% | 85.8 s | very significantly different | 841.4 ± 179.8 s | 1497.4 ± 124.3 s | 40% | 1.9 ± 0.4 | 0.5 ± 0.2 | 1573.1 ± 117.9 s |
| Cc1nnn(CC(=O)[C@H]2C[C@@H](C3CC3)[C@H]3[C@@H]4CC[C@@H]5C[C@](C)(O)CC[C@@H]5[C@H]4CC[C@@]32C)n1 [Example 52, 1-((3R,5R,8R,9R,10S,13S,14S,15S,17S)-15-Cyclopropyl-3-hydroxy-3,13-dimethylhexadecahydro-1H-cyclopenta[a]phenanthren-17-yl)-2-(5-methyl-2H-tetrazol-2-yl)ethan-1-one] | 150 nM | – | 38.00% | 91.21 s | – | – | – | 635.4 ± 149.9 s | 1506.8 ± 149.8 s | 30% | 1.8 ± 0.3 | 0.3 ± 0.2 | 1618.1 ± 121.3 s |
| C[C@@]1(O)CC[C@H]2[C@H](CC[C@@H]3[C@@H]2CC[C@@]2(C)[C@H]3[C@H](C3CC3)C[C@@H]2C(=O)Cn2nc(C#N)cc2C#N)C1 [Example 96, 1-(2-((3R,5R,8R,9R,10S,13S,14S,15S,17S)-15-Cyclopropyl-3-hydroxy-3,13-dimethylhexadecahydro-1H-cyclopenta[a]phenanthren-17-yl)-2-oxoethyl)-1H-pyrazole-3,5-dicarbonitrile] | 84 nM | 28.5 nM | – | – | – | – | – | – | – | – | – | – | – |

Source: patent publication US12590118B2, “Salt and crystal form of steroid derivative regulator” (Shanghai Hansoh Biomedical Co., Ltd., priority 2019, dated 2026)
